Assay results from patent US20130210899A1, “Method and Therapeutic for the Treatment and Regulation of Memory Formation” (The Regents of the University of California, priority 2010, published 2013).

Assays:
C57BL/6J male mice [1] = test: Novel object recognition memory (ORM) task after subthreshold training; type: in vivo; conditions: 24 h test; for long-term memory formation vs vehicle-treated mice, ORM: 3, 10, 30 mg/kg s.c. after 3 min training; for dose-dependent effect on ORM: 3, 10, 30 mg/kg s.c.
Protocol: Training and testing for location-dependent object recognition memory (OLM) and novel object recognition memory (ORM) was carried out as previously described. […] The experimental apparatus was a white rectangular open field (30×23×21.5 cm).
24-h later mice were tested for memory retention (5 min) using the object recognition memory task, in which a familiar object was replaced with a novel one. A discrimination index (DI) above zero indicates a preference for the novel object.

C57BL/6J male mice [2] = test: Location-dependent object recognition memory (OLM) task after subthreshold training; type: in vivo; conditions: for memory for object location vs vehicle, OLM: 1.25 ng/side intrahippocampal after 3 min training
Protocol: Training and testing for location-dependent object recognition memory (OLM) and novel object recognition memory (ORM) was carried out as previously described. (See, e.g., Roozendaal et al., J Neurosci 30:5037-5046, 2010, the disclosure of which is incorporated herein by reference.) Prior to training, mice were handled 1-2 min for 5 days and were habituated to the experimental apparatus 3 min a day for 3 consecutive days in the absence of objects. The experimental apparatus was a white rectangular open field (30×23×21.5 cm).
(See, Stefanko et al., Proc Natl Acad Sci USA 106:9447-9452, 2009, the disclosures of which are incorporated herein by reference.) During the 24-h or 7-day retention test, mice were placed in the experimental apparatus for 5 min. For object recognition memory (ORM), one copy of the familiar object (A3) and a new object (B1) were placed in the same location as during the training trial. For location-dependent object recognition memory (OLM), one copy of the familiar object (A3) was placed in the same location as during the training trial and one copy of the familiar object (A4) was placed in the middle of the box.
(§1) All combinations and locations of objects were used in a balanced manner to reduce potential biases due to preference for particular locations or objects. All training and testing trials were videotaped and analyzed by individuals blind to the treatment condition and the genotype of subjects. A mouse was scored as exploring an object when its head was oriented toward the object within a distance of 1 cm or when the nose was touching the object. The relative exploration time was recorded and expressed by a discrimination index [DI=(tnovel−tfamiliar)/(tnovel+tfamiliar)×100].
Animals were tested for short-term memory 90 min after training.
In addition, a separate group of mice were given a 3 min training period and then a 7 day retention test.

HDAC4 = test: Immunohistochemistry of dorsal hippocampus 2 hours after intrahippocampal infusion; type: in vivo, C57BL/6 mice; conditions: 1.25 ng/side intrahippocampal infusion
Protocol: (§2) Two weeks after mice were infused with AAV-Cre or two hours after hippocampal infusion of the inhibitor, mice were anesthetized deeply with sodium pentobarbital (100 mg/kg, i.p.) and perfused transcardially with ice-cold PBS, pH 7.4, followed by ice-cold 4% paraformaldehyde in PBS, pH 7.4, using a peristaltic perfusion pump (Fisher Scientific). The brains were removed, postfixed overnight at 4° C., and then transferred to 30% sucrose for 48 hr at 4° C. Brains were frozen and cryocut to 20 μm coronal slices, and sections were stored in 0.1M PBS. Floating sections were rinsed in 0.1% Triton X-100 (Fisher Scientific) in PBS, rinsed in PBS, and then blocked for 1 hr at room temperature in 8% normal goat serum (NGS, Jackson ImmunoResearch Laboratories) with 0.3% Triton X-100 in PBS. Sections were rinsed in PBS and for single labeling they were incubated overnight at 4° C. in 2% NGS, 0.3% Triton X-100 in PBS with primary antibody. The sections were then rinsed in PBS and incubated for 2 hr at room temperature with goat anti-rabbit IgG-FITC secondary antibody (1:1000, Millipore Bioscience International). […]
(§3) Images were acquired and using an Olympus (BX51, Japan) microscope using a 4× or 20× objective, CCD camera (QImaging), and QCapture Pro 6.0 software (QImaging) and quantified with ImageJ software (NIH). […]

HDAC2 = target: T1, HDAC2 (Mus musculus, UniProt P70288); test: as above; type: in vivo, C57BL/6 mice; conditions: 1.25 ng/side intrahippocampal infusion
T1 construct: from tissue; host or cells: dorsal hippocampus of C57BL/6 mice
T1 sequence (P70288 whole entry, the tested form may be a part): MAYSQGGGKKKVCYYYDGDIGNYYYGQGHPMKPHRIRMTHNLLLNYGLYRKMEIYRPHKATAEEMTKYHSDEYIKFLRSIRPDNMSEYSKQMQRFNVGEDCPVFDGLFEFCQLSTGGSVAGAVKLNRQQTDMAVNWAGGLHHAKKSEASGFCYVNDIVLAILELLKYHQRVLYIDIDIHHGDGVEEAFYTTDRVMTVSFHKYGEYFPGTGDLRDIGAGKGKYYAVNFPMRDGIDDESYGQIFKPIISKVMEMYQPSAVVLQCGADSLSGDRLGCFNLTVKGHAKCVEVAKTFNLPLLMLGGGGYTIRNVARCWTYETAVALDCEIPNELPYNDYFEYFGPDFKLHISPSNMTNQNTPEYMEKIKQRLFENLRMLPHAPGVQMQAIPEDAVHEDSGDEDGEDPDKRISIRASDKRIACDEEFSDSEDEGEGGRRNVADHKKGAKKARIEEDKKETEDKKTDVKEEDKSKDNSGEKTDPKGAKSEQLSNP
Protocol: as §2, §3

neuronal morphology = test: DAPI staining of neuronal morphology after intrahippocampal infusion; type: in vivo, C57BL/6 mice; conditions: 1.25 ng/side intrahippocampal infusion, 2 hours
Protocol: as §2, with “International). Sections were rinsed again in PBS and mounted on slides using ProLong Gold antifade reagent with DAPI (Invitrogen).” for “International).”

CBP^+/+ mice = test: OLM task in CBP+/+ mice after intrahippocampal infusion; type: in vivo; conditions: intrahippocampal 1.25 ng/side after 3 min training, 24 h
Protocol: (§4) To generate a focal deletion, mice were infused with adeno associated virus expressing Cre-recombinase (AAV2/1-Cre; Penn Vector Core, University of Pennsylvania, Philadelphia, Pa.) 2 weeks prior to behavioral procedures. Mice were anesthetized with isoflurane and placed in a digital Just For Mice stereotax (Stoelting, Wood Dale, Ill.). 1.0 μl of virus was injected at a rate of 6 μl/hr via an infusion needle positioned in the dorsal CA1 area of the hippocampus (antereoposterior (AP) −2.0; mediolateral (ML) ±1.5; dorsoventral (DV) −1.5). NCoR homozygous knock-in mice (referred to as DADm mice) were generated on C57BL/6 background using homologous recombination to incorporate a single amino acid substitution (Y478A) in the NCoR deacetylase activation domain (DAD). […]
as §1, with “[DI=(tnovel−tfamiliar)/(tnovel+tfamiliar)×100]. […]” for “[DI=(tnovel−tfamiliar)/(tnovel+tfamiliar)×100].”

H4K8Ac = test: Immunohistochemistry of dorsal hippocampus 2 hours after intrahippocampal infusion; type: in vivo, C57BL/6 mice; conditions: 1.25 ng/side intrahippocampal infusion
Protocol: as §2, §3

in vivo = conditions: mouse, brain, sc, 30 mg/kg
CBP^KIX/KIX mice = test: OLM task in CBP KIX/KIX mutant mice after intrahippocampal infusion; type: in vivo; conditions: intrahippocampal 1.25 ng/side after 3 min training, 24 h
Protocol: as §4
as §1, with “[DI=(tnovel−tfamiliar)/(tnovel+tfamiliar)×100]. […]” for “[DI=(tnovel−tfamiliar)/(tnovel+tfamiliar)×100].”

mice [3] = test: Acquisition of cocaine conditioned place preference, treatment after conditioning sessions; type: in vivo; conditions: 10 mg/kg s.c. following each conditioning session; cocaine 5 mg/kg i.p.
Protocol: In an experiment with a similar design as described above, animals were confined to a specific compartment and given cocaine (5 mg/kg, i.p.) or saline on alternating days. Immediately following the conditioning session (30 min), mice received an injection of RGFP966 (10 mg/kg, s.c.) or vehicle and then returned to the home cage. Forty-eight hours after the last conditioning session, animals had free access to all 3 compartments and preference was assessed in a drug-free state (15 min, Posttest; day 10). CPP score indicates preference by mean±S.E.M. of time in CS+ minus CS− compartment. All groups extinguished the preference for the CS+ compartment by extinction day 6. The following day, animals received a cocaine prime (10 mg/kg, i.p.) and were placed in the test chamber (Reinstatement).
In this test, mice were conditioned with two pairings of a low dose of cocaine (5 mg/kg, i.p.) and saline. Following each conditioning session, mice received RGFP966 (10 mg/kg, s.c.) or vehicle.

mice [4] = test: Cocaine-primed reinstatement of conditioned place preference; type: in vivo; conditions: cocaine prime 10 mg/kg i.p.
Protocol: Conditioned place preference experiments were similar to those described in Malvaez et al. (Malvaez, M., et al., Biological Psychiatry, 67, 36-43, 2010, the disclosure of which is incorporated herein by reference). Mice were briefly handled for 3 consecutive days (days 1-3). Baseline preferences were assessed by placing the animals in the three-chambered apparatus for 15 min (Pretest, day 4). Time spent in each compartment was recorded. Conditioning took place over the next 4 days with the guillotine doors closed, confining animals to a specific compartment for 30 min (days 5-8). An unbiased paradigm was used such that half of the animals were injected with cocaine (20 mg/kg, i.p.) before placement in the checkered compartment and half were injected with cocaine before placement in the white compartment (CS+). […] Forty-eight hours after the last conditioning session, animals had access to all 3 compartments and preference was assessed in a drug-free state (15 min, Posttest; day 10). […]
In an experiment with a similar design as described above, animals were confined to a specific compartment and given cocaine (5 mg/kg, i.p.) or saline on alternating days. […] Forty-eight hours after the last conditioning session, animals had free access to all 3 compartments and preference was assessed in a drug-free state (15 min, Posttest; day 10). […]

mice [5] = test: Extinction of cocaine conditioned place preference (CPP); type: in vivo; conditions: 10 mg/kg s.c. immediately following Posttest; Ext2 and Ext3
Protocol: Conditioned place preference experiments were similar to those described in Malvaez et al. (Malvaez, M., et al., Biological Psychiatry, 67, 36-43, 2010, the disclosure of which is incorporated herein by reference). Mice were briefly handled for 3 consecutive days (days 1-3). Baseline preferences were assessed by placing the animals in the three-chambered apparatus for 15 min (Pretest, day 4). Time spent in each compartment was recorded. Conditioning took place over the next 4 days with the guillotine doors closed, confining animals to a specific compartment for 30 min (days 5-8). An unbiased paradigm was used such that half of the animals were injected with cocaine (20 mg/kg, i.p.) before placement in the checkered compartment and half were injected with cocaine before placement in the white compartment (CS+). The next day, mice received 0.9% saline injection (1.0 ml/kg, i.p.) before placement in the alternate compartment (CS−). Injections were alternated for subsequent conditioning sessions. Forty-eight hours after the last conditioning session, animals had access to all 3 compartments and preference was assessed in a drug-free state (15 min, Posttest; day 10). This is also the first of the extinction sessions which occurred daily until extinction criteria were met. […]

SMILES | long-term memory formation vs vehicle-treated mice, ORM (C57BL/6J male mice [1]) | dose-dependent effect on ORM (C57BL/6J male mice [1]) | memory for object location vs vehicle, OLM (C57BL/6J male mice [2]; 24 hours) | memory for object location vs vehicle, OLM (C57BL/6J male mice [2]; 7 day retention test) | preference for the object in the novel location vs vehicle, OLM (C57BL/6J male mice [2]; 30 mg/kg s.c. post-training, 24 h retention test) | HDAC4 nuclear expression vs vehicle (HDAC4) | HDAC2 expression vs vehicle (HDAC2) | neuronal morphology (DAPI staining) vs vehicle (neuronal morphology) | memory for novel object location vs vehicle, OLM (CBP^+/+ mice) | immunoreactivity for H4K8Ac vs vehicle (H4K8Ac) | Cmax (in vivo) | effect on long-term memory, OLM (CBP^KIX/KIX mice) | effect on cocaine conditioned place preference (Posttest) (mice [3]) | reinstatement of preference after cocaine prime (mice [4]; 3 mg/kg received during extinction) | reinstatement of preference after cocaine prime (mice [4]; 10 mg/kg received during extinction) | extinction of preference for the cocaine-paired compartment (CPP score) (mice [5])
Cc1ccc(C(=O)NCCCCCC(=O)Nc2ccc(F)cc2N)cc1 [RGFP136, N-(6-(2-amino-4-fluorophenylamino)-6-oxohexyl)-4-methylbenzamide] | significantly enhanced | Significant dose-dependent effects | greater memory | significantly greater memory | significant preference | loss of HDAC4 nuclear expression | unchanged | does not alter neuronal morphology | significantly greater memory | increase | ~1700 nM | no effect | – | – | – | –
Nc1cc(F)ccc1NC(=O)/C=C/c1cnn(CC=Cc2ccccc2)c1 [RGFP966, (E)-N-(2-amino-4-fluorophenyl)-3-(1-cinnamyl-1H-pyrazol-4-yl)acrylamide] | significantly enhanced | lack of an observed dose effect | – | – | – | – | – | – | – | – | – | – | does not alter | significant preference | did not reinstate a preference | rapid extinction
